pIC50: −log10 of the molar value.

Experimental findings from US7094761B2, “Methods and compounds for prevention and treatment of elevated intraocular pressure and related conditions” (Theratechnologies Inc., priority 2002, dated 2006) are described below.

The subject of this experiment is intraocular pressure in piglets. The settings on record: for pIC50: pig, in vivo; for effect on basal intraocular pressure: piglet, peptide in saline applied topically as drops, monitored for 15 min.

Experimental: Method: Newborn pigs (1–3 days old) were anesthetized with 1.5% halothane for tracheostomy and catheterization of the right femoral vein for drug administration. Animals were ventilated by means of a Harvard small animal respirator with a gas mixture of 25% O2 and 75% N2. Halothane was discontinued after surgery and immediately thereafter the animals were sedated with Alpha-chloralose (50 mg/kg i.v.) and paralyzed with pancuronium (0.1 mg/kg i.v.). Animals were placed under radiant warmer to keep their body temperature at 37° C. A butterfly needle (24G) is inserted into the anterior chamber of both eyes and connected to a Statham pressure transducer connected to a Gould multichannel recorder. Intraocular pressure is then allowed to stabilize for 15 minutes. […] The intraocular pressure was monitored for 15 minutes at which time a maximal effect was observed.
Peptides dissolved in saline were applied to the eye after 15 min of stabilization of intraocular pressure and changes in pressure were monitored for 15 min. The deviation (negative for hypotension) was plotted as a function of time (min).
The experiments were done as above, except that intraocular pressure was plotted versus the dose of peptide used.

As to `CC[C@H](C)[C@H](N)C(=O)N[C@@H](Cc1ccccc1)C(=O)N[C@@H](CC(=O)O)C(=O)N[C@@H](CO)C(=O)N[C@H](C(=O)N[C@@H](CCC(=O)O)C(=O)N[C@@H](CS)C(=O)N[C@@H](Cc1c[nH]c2ccccc12)C(=O)O)[C@@H](C)O` [Peptide 1405, NH2-Ile Phe Asp Ser Thr Gln Cys Trp-OH], the pIC50 was 6.47 and the “effect on basal intraocular pressure” value is listed as “produced a decrease in ocular pressure”.

For “H-HIICSPLR-OH [Peptide 1402, NH2-His Ile Ile Cys Ser Pro Leu Arg-OH]”, the pIC50 was 7.06 and the “effect on basal intraocular pressure” value was “produced a decrease in ocular pressure”.

For “NH2-Phe Ser Leu Thr Gln Lys Tyr Cys-OH (H-FSLTQKYC-OH) [Peptide 1401]”, the “effect on basal intraocular pressure” value was “produced a decrease in ocular pressure”.

Usually pIC50 stands for the negative decadic logarithm of the IC50, by convention in mol/L. A lower pIC50 goes with a high IC50.
